Some test systems named below: NCI-H23; 786-0; EKVX; SK-MEL-28; K562; HT-29; IGROV-1; NCI-H226; MOLT-4; SW-620; SK-MEL-2; A549; SN12C; DLD-1; SNB-75; NCI-H460; ACHN; HL-60; MCF7; NCI/ADR-RES.
Common to all, as to test: NCI-60 cell line screen, 48 h

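Each compound was tested at five concentrations against cells in 96-well plates for 48 hours. At the GI50, growth is halved.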 The source made the active and inactive calls. No stated cut-off is given here; in the data, active = GI50 up to about 1.1 µM and inactive = higher.

We go through 11 compounds from ChEMBL document CHEMBL1201862, “PubChem BioAssay data set” (2004).

As to `O=C(C#Cc1ccccc1)Nc1ccccc1CC(c1c[nH]c2ccccc12)c1c[nH]c2ccccc12`, the GI50 in the test on NCI-H23 is 15.4 µM (inactive); in the test with 786-0, 9.53 µM (inactive); in the test with EKVX it was 12.3 µM (inactive); with SK-MEL-28, 15.5 µM (inactive); in the test with K562, 4.47 µM (inactive); in the test on HT-29, 10.3 µM (inactive). For the same compound, the GI50 in the test with IGROV-1 was 16.3 µM (inactive); in the test with NCI-H226, 16.6 µM (inactive); in the test on MOLT-4, 3.33 µM (inactive); in the test on SW-620 it was 12.1 µM (inactive); with SK-MEL-2, 18.3 µM (inactive); in the test with A549, 23.2 µM (inactive). Moreover, the results for the GI50 with SN12C, with DLD-1 and in the test on SNB-75 were 8.83 µM (inactive), 17 µM (inactive) and 5.9 µM (inactive), respectively.

For the compound `Cc1c(O)c(=O)ccn1CCN`, the GI50 in the test with NCI-H23, with 786-0, in the test with EKVX, in the test on SK-MEL-28, in the test on K562 and in the test with HT-29 was > 100 µM (inactive) each time. In addition, the GI50 in the test with IGROV-1, in the test with NCI-H460, in the test with NCI-H226, with ACHN, in the test with MOLT-4 and with SW-620 was > 100 µM (inactive) throughout. Besides, the GI50 with SK-MEL-2, with A549, with SN12C, in the test with DLD-1 and in the test on SNB-75 was > 100 µM (inactive) throughout.

For the compound `Cc1ccc(O)c(/N=N/c2ccc(S(=O)(=O)O)cc2)n1`, the GI50 with NCI-H23 was > 100 µM (inactive); in the test with 786-0 it was > 100 µM (inactive); in the test with EKVX, 21 µM (inactive); with SK-MEL-28, > 100 µM (inactive); with K562, > 100 µM (inactive); with HL-60 it was > 100 µM (inactive). Besides, the GI50 with IGROV-1, in the test with NCI-H460, in the test with ACHN, in the test on MOLT-4, with SW-620 and with A549 was > 100 µM (inactive) each time. Further, the GI50 in the test with SN12C and in the test with DLD-1 was > 100 µM (inactive) in each case.

Turning to `COc1ccc(OC)c(NC(=O)C2=C(C)NC(C)=C(C(=O)Nc3cc(OC)ccc3OC)C2c2ccco2)c1`, the GI50 in the test on NCI-H23, in the test on 786-0, in the test on EKVX, in the test with K562, in the test with HT-29 and with IGROV-1 was > 100 µM (inactive) each time. In addition, the GI50 in the test with NCI-H460 was > 100 µM (inactive); in the test with NCI-H226 it was > 100 µM (inactive); in the test on ACHN, > 100 µM (inactive); with MOLT-4 it was 27.7 µM (inactive); in the test on SW-620 it was > 100 µM (inactive); in the test on SK-MEL-2, > 100 µM (inactive). The GI50 with A549, in the test with SN12C, with DLD-1 and in the test with SNB-75 was > 100 µM (inactive) in each case.

On to `Cc1cn(CCCCOC(=O)NC(CCCNC(N)=O)C(=O)O)c(=O)[nH]c1=O` (stereo not given), for which the GI50 with NCI-H23, with MCF7, in the test with 786-0, in the test on EKVX, in the test on SK-MEL-28 and with K562 was > 100 µM (inactive) in each case. The GI50 in the test on HT-29, with HL-60, with IGROV-1, in the test with NCI-H460, with NCI-H226 and in the test with ACHN was > 100 µM (inactive) throughout. Further, the GI50 with MOLT-4, in the test with SW-620, with SK-MEL-2, in the test on A549, in the test with NCI/ADR-RES and in the test on SN12C was > 100 µM (inactive) throughout. For the same compound, the GI50 in the test on SNB-75 is > 100 µM (inactive).

Turning to `Cc1cc2c(=Cc3ccc(N(C)C)cc3)c3ccccc3n2[n+]1C`, the GI50 in the test with NCI-H23 was 0.497 µM (active); with MCF7 it was 0.396 µM (active); in the test with 786-0 it was 0.607 µM (active); in the test on EKVX it was 1.02 µM (active); in the test on SK-MEL-28, 1.2 µM (inactive); with K562 it was 0.227 µM (active). Moreover, the GI50 in the test on HT-29 was 0.675 µM (active); in the test on HL-60 it was 1.39 µM (inactive); in the test on IGROV-1, 1.52 µM (inactive); with NCI-H460 it was 0.393 µM (active); in the test with NCI-H226 it was 1.01 µM (active); in the test with ACHN, 2.23 µM (inactive). The GI50 in the test with MOLT-4 is 0.282 µM (active); in the test on SW-620 it was 1.21 µM (inactive); with SK-MEL-2, 0.652 µM (active); with A549, 0.632 µM (active); in the test on NCI/ADR-RES it was > 66.4 µM (inactive); in the test with SN12C, 0.304 µM (active). In the test with SNB-75, the GI50 is 0.409 µM (active).

Regarding `CCOc1cc(-c2nc3ccccn3c2/N=C/c2cc(Br)ccc2O)ccc1O`, the GI50 in the test with NCI-H23 was 39.8 µM (inactive); in the test on MCF7, 13.9 µM (inactive); in the test with 786-0 it was 25.1 µM (inactive); in the test with EKVX, 23 µM (inactive); in the test with SK-MEL-28 it was > 100 µM (inactive); with K562, 24.2 µM (inactive). Besides, the GI50 with HT-29 is 42.1 µM (inactive); with HL-60 it was 15 µM (inactive); in the test on IGROV-1, 20.6 µM (inactive); with NCI-H460, 58.3 µM (inactive); in the test on NCI-H226, 93.3 µM (inactive); in the test on ACHN, 47.5 µM (inactive). Besides, the GI50 in the test on MOLT-4 was 45.7 µM (inactive); in the test on SW-620, 65 µM (inactive); with SK-MEL-2 it was 46.1 µM (inactive); with A549 it was 37.9 µM (inactive); in the test with NCI/ADR-RES it was 27.7 µM (inactive); in the test with SN12C, 31.3 µM (inactive). Further, in the test with SNB-75, the GI50 is 5.62 µM (inactive).

On to `CN(C)CCNC(=O)c1cc(NC(=O)c2cc(NC(=O)CC/C=C3/[C@@H]4CC[C@H]3N=N4)cn2C)cn1C`, for which the GI50 in the test with NCI-H23, with MCF7, in the test on 786-0, in the test on EKVX, in the test on SK-MEL-28 and in the test with K562 was > 100 µM (inactive) each time. In addition, the GI50 in the test on HT-29, with HL-60, with IGROV-1, with NCI-H460, in the test on NCI-H226 and in the test with ACHN was > 100 µM (inactive) throughout. The GI50 in the test with MOLT-4, in the test with SW-620, with SK-MEL-2, in the test on A549, in the test with NCI/ADR-RES and in the test with SN12C was > 100 µM (inactive) in each case. For the same compound, the GI50 in the test on SNB-75 was > 100 µM (inactive).

With `COC(=O)[C@H](COC(=O)/C=C/c1ccc(OC(C)=O)c(OC(C)=O)c1)NC(=O)/C=C/c1ccc(OC(C)=O)c(OC(C)=O)c1`, the GI50 was 22.4 µM (inactive) in the test with NCI-H23; 38.4 µM (inactive) in the test on MCF7; 13.2 µM (inactive) with 786-0; 15.5 µM (inactive) in the test on EKVX; 30.5 µM (inactive) in the test with SK-MEL-28; > 100 µM (inactive) in the test with K562. In addition, the GI50 in the test on HT-29 was 22.3 µM (inactive); with HL-60 it was > 100 µM (inactive); in the test with IGROV-1, 18.5 µM (inactive); with NCI-H460, 22.4 µM (inactive); in the test with NCI-H226 it was 29.2 µM (inactive); with ACHN it was 18 µM (inactive). In addition, the GI50 with MOLT-4 is > 100 µM (inactive); in the test with SW-620 it was 30.7 µM (inactive); with SK-MEL-2, 18.5 µM (inactive); in the test on A549, 30.7 µM (inactive); in the test with NCI/ADR-RES, 33.7 µM (inactive); in the test with SN12C, 18.8 µM (inactive). Also, the GI50 with SNB-75 was 14.6 µM (inactive).

With `O=C1C=CC(=O)c2c1cc([N+](=O)[O-])c1ccoc21`, the GI50 was 22.6 µM (inactive) with NCI-H23; 14.3 µM (inactive) in the test with MCF7; 1.77 µM (inactive) with 786-0; 17.8 µM (inactive) in the test on EKVX; 20.1 µM (inactive) in the test with SK-MEL-28; 2.75 µM (inactive) in the test with K562. For the same compound, the GI50 in the test with HT-29 was 17.3 µM (inactive); in the test on HL-60, 0.743 µM (active); in the test on IGROV-1, 17.7 µM (inactive); with NCI-H460 it was 18.2 µM (inactive); in the test on NCI-H226, 26.6 µM (inactive); in the test on ACHN it was 1.82 µM (inactive). For the same compound, the GI50 in the test on MOLT-4 was 0.942 µM (active); in the test with SW-620 it was 2.36 µM (inactive); with SK-MEL-2 it was 18.4 µM (inactive); in the test on A549 it was 20.9 µM (inactive); in the test on NCI/ADR-RES, 22.6 µM (inactive); in the test with SN12C, 15.2 µM (inactive). The GI50 with SNB-75 is 26.1 µM (inactive).

Consider `O=C(O)COc1cc(-c2ccccc2)nc2ccc(F)cc12`, for which the GI50 with NCI-H23, with MCF7, in the test on 786-0, in the test on EKVX, with SK-MEL-28 and in the test with K562 was > 100 µM (inactive) in each case. Further, the GI50 in the test with HT-29, in the test on HL-60, in the test with IGROV-1, in the test on NCI-H460, with NCI-H226 and in the test with ACHN was > 100 µM (inactive) throughout. The GI50 in the test with MOLT-4, in the test with SW-620, in the test on SK-MEL-2, in the test with A549, in the test with NCI/ADR-RES and in the test with SN12C was > 100 µM (inactive) each time. In addition, the GI50 with SNB-75 was > 100 µM (inactive).
